The text below walks through data of US5981517A, “Androstene derivatives” (priority 1997, dated 1999).

In one data set the test system is rats. Particulars: oral; cited from earlier work.
A further data set relates to granuloma / thymolysis. The data set can be described thus: Comparison of local effect and systemic side-effects (therapeutic index). The format is in vivo, rat. Particulars: granuloma relative potency / thymolysis relative potency. The method, then: The test compound was dissolved in acetone and aliquots of varying concentrations were injected into cotton pellets. The pellets were dried and then one pellet was implanted beneath the skin of each test rat. Six days later, the animals were sacrificed and the granulation tissue (granuloma) which formed in and around the implanted pellet was removed, dried and weighed. In addition, the thymi and adrenals were removed and weighed.
(§1) Several further studies were undertaken to determine the effects of a selected compound of the invention and prior art steroids on thymi weights in rats when the drugs were systemically administered. In each of these studies, male Sprague-Dawley rats were used. The test compounds were suspended in 0.5% CMC (carboxymethylcellulose) and injected subcutaneously once daily for three days. On the fifth day (48 hours following the last treatment), the animals were sacrificed and the thymi weights were recorded. Body weight gains were measured 24 hours after the last treatment.
The ED50 's calculated for the local cotton pellet granuloma assay and the TED40 's calculated on the basis of thymus inhibition testing as described above were used to arrive at relative potency and a therapeutic index for a representative species of the invention as compared to prior art steroids.

The subject of the next data set is skin. Kind of data set: Skin weight test, 10 days of topical treatment in the rat. The format is in vivo, Male Sprague-Dawley rats. The conditions noted are these: for Wet skin weight, Treated, Decrease / Wet skin weight, Untreated, Decrease: percent decrease of the control; for Wet skin weight, Treated, Decrease: treated flank; for Wet skin weight, Untreated, Decrease: untreated flank; for Body wt. gain / Thymus wt. / Wet skin weight, Treated / Wet skin weight, Untreated: topical 0.1%, 10 days; for Body wt. gain / Thymus wt.: daily dose 30 μg; for Thymus wt. / Wet skin weight, Treated / Wet skin weight, Untreated: mean ± S.E.; for Wet skin weight, Treated: treated left flank; for Wet skin weight, Treated / Wet skin weight, Untreated: 30 μg daily; for Wet skin weight, Untreated: untreated right flank. On the procedure:
Male Sprague-Dawley rats, weighing about 210 g, were lightly anesthetized with ether, shaved and marked in three areas on each flank with intradermally injected blue ink. […] Treated control animals received daily topical administration of the vehicle (DMF) alone. Solvent and test compound solutions (10 μL) were applied once daily for 10 consecutive days, with […] necessary. On the eleventh day, the animals were sacrificed, their skins were removed and 16 mm diameter plugs were punched out from each area. The plugs were scraped carefully to remove subcutaneous fat and muscle, then they were blotted on filter paper and weighed. Skin atrophy is a known side effect associated with topically applied anti-inflammatory steroids.

Another data set deals with thymi. Set-up: species or system male Sprague-Dawley rats. The conditions noted are these: rat, in vivo, sc. On the procedure:
as §1, with “treatment. From the test results, the TED40 's (thymolytic effective doses, that is, doses required to achieve 40% inhibition of thymi weight) and relative potencies of a representative compound of the invention and reference steroids were calculated. […] It is evident that the higher the inhibition of thymus activity at a given dose, the more toxic the compound is.” for “treatment.”

Data set [1] has as its target T1, rat lung glucocorticoid receptor (Rattus norvegicus, UniProt P06536).
T1 construct: Immediately after resection of the lungs, the tissue was frozen in ice; The cytosol was prepared; from tissue; host or cells: lung cytosol of adrenalectomized male Sprague-Dawley rats
T1 sequence (P06536 1-795): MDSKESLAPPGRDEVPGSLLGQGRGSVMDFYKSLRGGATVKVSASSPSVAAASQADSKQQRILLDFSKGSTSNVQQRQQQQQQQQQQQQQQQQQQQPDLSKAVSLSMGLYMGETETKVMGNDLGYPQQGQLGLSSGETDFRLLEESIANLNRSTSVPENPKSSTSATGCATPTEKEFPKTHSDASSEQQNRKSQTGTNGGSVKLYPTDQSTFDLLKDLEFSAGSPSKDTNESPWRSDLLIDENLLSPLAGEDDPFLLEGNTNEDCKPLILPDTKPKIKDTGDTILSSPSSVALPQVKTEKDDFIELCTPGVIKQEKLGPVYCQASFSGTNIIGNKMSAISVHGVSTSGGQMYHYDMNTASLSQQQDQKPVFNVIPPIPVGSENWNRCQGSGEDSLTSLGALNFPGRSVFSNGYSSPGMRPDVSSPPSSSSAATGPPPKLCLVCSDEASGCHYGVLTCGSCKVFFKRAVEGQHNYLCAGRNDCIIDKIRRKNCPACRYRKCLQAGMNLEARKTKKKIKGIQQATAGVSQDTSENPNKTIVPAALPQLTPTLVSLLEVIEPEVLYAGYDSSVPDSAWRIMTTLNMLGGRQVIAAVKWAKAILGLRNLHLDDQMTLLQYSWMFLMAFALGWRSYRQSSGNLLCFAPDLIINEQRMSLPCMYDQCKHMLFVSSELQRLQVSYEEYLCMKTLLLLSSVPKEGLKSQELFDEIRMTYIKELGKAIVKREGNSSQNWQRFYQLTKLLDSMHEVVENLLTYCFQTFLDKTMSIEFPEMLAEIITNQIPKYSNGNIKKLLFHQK
Kind of data set: Receptor binding studies ([3H]triamcinolone acetonide displacement). Particulars: further receptor binding studies (Table X); dexamethasone = 100; * mean ± SE of 3-5 results. The method, then: Male Sprague-Dawley rats, each weighing 150 to 200 g, were used 6 days after adrenalectomy. Rats were sacrificed by decapitation. Immediately after resection of the lungs, the tissue was frozen in ice. […] Portions (5 ml) of the cytosol were frozen in liquid nitrogen and stored at -80° C.
The cytosol was thawed in a water bath and diluted with 1 part of incubation buffer containing a 15 mM concentration of diisopropyl fluorophosphate. […] After a 2 hour incubation period at room temperature (24° C.), the unbound steroid was removed by addition of a 2% suspension of activated charcoal in incubation buffer (400 μL). The mixture was incubated for 5 minutes at room temperature and then was centrifuged at about 10,000 g for 3 minutes in the microcentrifuge. The radioactivity (cpm) in the supernatant (400 μL) was determined by liquid scintillation counting.
The data is fitted to the following logistic function:
B=T-T * C^N /(C^N +IC50^N)+NS,
where B=CPM in the presence of competitor, T=CPM in the absence of competitor, C=competitor concentration, N=Hill slope factor, and NS=cpm under non-specific binding conditions.
For the representative compound of the invention B, receptor binding affinity was investigated with and without Δ^1 -cortienic acid in the incubation solution to study the effect of Δ^1 -cortienic acid on the receptor binding.
Further studies to evaluate the relative receptor binding affinities of compounds of the invention, other compounds of formula (VII) hereinabove and well-known anti-inflammatory steroids were undertaken, using the methods described in the RECEPTOR BINDING STUDIES set forth above. […] For comparison purposes, the following compounds having formula (VII) above were also tested: […]

A short description of another data set: in vitro. The format is in vitro ADME. The conditions noted are these: rat, lung cytosol. On the procedure: To determine that the compounds of the invention can be stable during the incubation period, the test compounds A, B, C, and D were investigated for their stabilities at the incubation conditions, which are room temperature and 2 hours, for receptor binding studies. The frozen cytosol which was made for the receptor binding study was thawed in a water bath and diluted with 1 part of incubation buffer (10 mM Tris/HCl, 10 mM sodium molybdate, and 2 mM 1,4-dithiothreitol) containing a 15 mM concentration of enzyme inhibitor, diisopropyl fluorophosphate. Portions (560 μL) of the diluted cytosol were added to centrifuge tubes containing 80 μL portions of blank incubation buffer instead of volume of tracer ([^3 H]triamcinolone acetonide) which would be used in the receptor binding study (RBS), 80 μL of solution of a Δ^1 -cortienic acid (0.1 mM) in buffer (the final concentration of Δ^1 -cortienic acid in the incubation medium was […]), and 80 μL of 100,000 nM of concentrations of test compounds in ethanol to give a final concentration of 10,000 nM. This mixture was kept at room temperature for 2 hours. Samples of 0.1 mL were taken at appropriate time intervals (0, 0.5, 1, 1.5, 2 hours) and were mixed with 0.2 mL of acetonitrile containing 5% DMSO. Each mixture was centrifuged and the supernatant were injected in the HPLC.
Male Sprague-Dawley rats, each weighing 150 to 200 g, were used 6 days after adrenalectomy. Rats were sacrificed by decapitation. Immediately after resection of the lungs, the tissue was frozen in ice. The cytosol was prepared using a slight modification of a previously described method (Dahlberg, 1984); After addition of 6 volumes of ice-cold incubation buffer (10 mM Tris/HCl, 10 mM sodium molybdate, and 2 mM 1,4-dithiothreitol), the tissue was homogenized with the Virtis 45 homogenizer at full speed, for 4 periods of 10 seconds with a 10-second cooling period between each step. The homogenate was centrifuged at 35,000 g for 1 hour at 4° C. in a Beckman ultracentrifuge L8-70M equipped with a T170 rotor. Portions (5 ml) of the cytosol were frozen in liquid nitrogen and stored at -80° C.

The subject of data set [2] is forearms of a human volunteer. Kind of data set: Further human vasoconstriction testing, Method 1. It is filed as in vivo. The method, then: The mixtures, in 50 μL amounts, were applied to circular patches (8 mm diameter). After evaporation of ethanol, the patches were applied to the forearms of a human volunteer, and covered with a water impervious film for 3 hr. The intensity of vasoconstriction (scale 0-4) was judged at various time intervals after removal of the patches. The grading scale was as follows: 0, normal skin; 1, slight pallor of indistinct outline; 2, pallor with at least two corners outlined; 3, even pallor with a clear outline of the application sites; 4, very intense pallor. The skin tests (2-4 tests on each compound) were performed on the same person.

Usually LD50 stands for the dose expected to kill half of the subjects tested. As for `CCC(=O)O` [propionic acid], the LD50 with rats is given as 4.29 g/kg.
Take `CCCC(=O)O[C@]1(C(=O)CO)CC[C@H]2[C@@H]3CCC4=CC(=O)CC[C@]4(C)[C@H]3[C@@H](O)C[C@@]21C` [Hydrocortisone 17-butyrate]: the “Therapeutic Index (a/b)” value in the data set on granuloma / thymolysis is reported as 1.23. Also, in the data set on skin, the “Wet skin weight, Treated, Decrease” value is reported as 13.1%; the “Wet skin weight, Untreated, Decrease” value was determined as 14.0%; the Body wt. gain is listed as 45.7 ± 10.6 g; the Thymus wt. is given as 540 ± 61 mg. In addition, in the data set with skin, the “Wet skin weight, Treated” value came out at 86.3 ± 1.5 mg and the “Wet skin weight, Untreated” value is on record as 72.0 ± 4.7 mg. The “Thymolysis, Relative Potency at ED40 Level (b)” value with thymi turned out to be 57.
As for `CCC(=O)O[C@]1(C(=O)CCl)[C@@H](C)C[C@H]2[C@@H]3CCC4=CC(=O)C=C[C@]4(C)[C@@]3(F)[C@@H](O)C[C@@]21C` [Clobetasol 17-propionate], in the data set on granuloma / thymolysis, the “Therapeutic Index (a/b)” value stood at 1.54. In the data set with skin, the “Wet skin weight, Treated, Decrease” value came to 21.2%; the “Wet skin weight, Untreated, Decrease” value was found to be 19.2%; the Body wt. gain was 24.2 ± 2.3 g; the Thymus wt. was 190 ± 14 mg. Also, in the data set with skin, the “Wet skin weight, Treated” value is listed as 78.2 mg and the “Wet skin weight, Untreated” value is 67.6 ± 6.2 mg. Also, in the data set on thymi, the “Thymolysis, Relative Potency at ED40 Level (b)” value is recorded as 1927.
The share remaining is what is left of the initial amount, in per cent. Read a high share remaining as less turnover. The compound `CCOC(=O)[C@@]1(OC(=O)CCl)CC[C@H]2[C@@H]3CCC4=CC(=O)C=C[C@]4(C)[C@H]3[C@@H](O)C[C@@]21C` [Compound R, ethyl 17α-chloroacetoxy-11β-hydroxyandrosta-1,4-dien-3-one-17β-carboxylate] displayed an RBA in data set [1] of 22. Moreover, the fraction remaining at 2 h in “in vitro” came out at 30%. Besides, the Vasoconstriction activity in data set [2] (3 Hours, 0.01 mM) stood at 0; in data set [2] (3 Hours, 0.05 mM), 0; in data set [2] (3 Hours, 0.1 mM) it was 0; in data set [2] (3 Hours, 0.5 mM), 1; in data set [2] (3 Hours, 1 mM), 1; in data set [2] (3 Hours, 5 mM) it was 1. Also, the Vasoconstriction activity in data set [2] (20 Hours, 0.01 mM) is on record as 0; in data set [2] (20 Hours, 0.05 mM), 0; in data set [2] (20 Hours, 0.1 mM), 0; in data set [2] (20 Hours, 0.5 mM), 0; in data set [2] (20 Hours, 1 mM), 0; in data set [2] (20 Hours, 5 mM) it was 0. For the same compound, the Vasoconstriction activity is recorded as 0 in data set [2] (24 Hours, 1 hour re-occlusion at 20-21 hours, 0.01 mM); 0 in data set [2] (24 Hours, 1 hour re-occlusion at 20-21 hours, 0.05 mM); 0 in data set [2] (24 Hours, 1 hour re-occlusion at 20-21 hours, 0.1 mM); 0 in data set [2] (24 Hours, 1 hour re-occlusion at 20-21 hours, 0.5 mM).
With `CC(=O)O` [Acetic acid], the LD50 with rats was 3.53 g/kg.
